Among the data in patent US8877748B2, “Heterocyclic fused anthraquinone derivatives, manufacturing method and pharmaceutical composition using thereof” (National Defense Medical Center, priority 2012, dated 2014) are IC50 values, retold here.

The subject of one experiment is PC-3 prostate cancer cell line. Briefly: SRB assay cell viability, PC-3 prostate cancer cell line. The experiment is classed as cell-based, human. As to conditions: Homo sapiens, PC-3 prostate cancer cell line, Table II prints no unit, μM printed, read-out: SRB assay: 50% inhibition of cancer cell proliferation of sample concentration (IC50) of PC-3 prostate cancer cell line. Background: The SRB assay estimates cell density from bound dye.
For `O=C1c2ccccc2C(=O)c2c1cc(O)c1nsnc21` [C4, Potassium 6,11-dioxo-6,11-dihydroanthra[2,1-c][1,2,5]thiadiazol-4-olate], the IC50 was found to be 18.5 µM.

`CCCNc1cc2c(c3nsnc13)C(=O)c1ccccc1C2=O` [C6, 4-(propylamino)anthra-[2,1-c][1,2,5] thiadiazol-6,11-dione]: the IC50 stood at 3.25 µM.

Regarding `CCN1CCN(c2cc3c(c4nsnc24)C(=O)c2ccccc2C3=O)CC1` [C9, 4-(4-ethyl-piperazin-1-yl)anthra[2,1-c] [1,2,5]thiadiazol-6,11-dione], the IC50 is 9.43 µM.

Consider `O=C1c2ccccc2C(=O)c2c1cc(N1CCCCC1)c1nsnc21` [C11, 4-(piperidine-1-yl)anthra[2,1-c][1,2,5] thiadiazol-6,11-dione], for which the IC50 was determined as 1.38 µM.

As for `CCCCNc1cc2c(c3nsnc13)C(=O)c1ccccc1C2=O` [C12, 4-butylamino-anthra[2,1-c][1,2,5] thiadiazol-6,11-dione], the IC50 was found to be 1.76 µM.

Regarding `CCNc1cc2c(c3nsnc13)C(=O)c1ccccc1C2=O` [C13, 4-ethylamino anthra[2,1-c][1,2,5] thiadiazol-6,11-dione], the IC50 was 2.97 µM.

With `CCCSc1cc2c(c3nsnc13)C(=O)c1ccccc1C2=O` [C17, 4-(n-propylthio)-anthra[2,1-c][1,2,5] thiadiazol-6,11-dione], the IC50 is 3.69 µM.

With `COc1ccccc1Sc1cc2c(c3nsnc13)C(=O)c1ccccc1C2=O` [C23, 4-(2-methoxy-phenyl-thio)anthra[2,1-c] [1,2,5]thiadiazol-6,11-dione], the IC50 is more than 15 µM.

With `O=C1c2ccccc2C(=O)c2c1cc(Sc1ccc(Br)cc1)c1nsnc21` [C24, 4-(4-bromo-phenyl-thio)anthra[2,1-c] [1,2,5]thiadiazol-6,11-dione], the IC50 was more than 15 µM.

Consider `CC(C)c1ccc(Sc2cc3c(c4nsnc24)C(=O)c2ccccc2C3=O)cc1` [C26, 4-(4-isopropyl-phenyl-thio)anthra[2,1-c] [1,2,5]thiadiazol-6,11-dione], for which the IC50 was more than 15 µM.

Turning to `O=C1c2ccccc2C(=O)c2c1cc(Sc1ccc(F)cc1)c1nsnc21` [C28, 4-(4-fluoro-phenyl-thio)anthra[2,1-c] [1,2,5]thiadiazol-6,11-dione], the IC50 was determined as 6.7 µM.

As for `O=C1c2ccccc2C(=O)c2c1cc(Sc1ccccc1Cl)c1nsnc21` [C32, 4-(2-chloro-phenylthio)anthra[2,1-c] [1,2,5]thiadiazol-6,11-dione], the IC50 is more than 15 µM.

With `O=C1c2ccccc2C(=O)c2c1cc(Sc1cc(Cl)c(Cl)cc1Cl)c1nsnc21` [C34, 4-(2,4,5-trichloro-phenylthio)anthra[2,1-C] [1,2,5]thiadiazol-6,11-dione], the IC50 is more than 15 µM.

Still in this experiment, the particulars now being: Homo sapiens, PC-3 prostate cancer cells, read-out: IC50 in PC-3 prostate cancer cells (cell viability analysis).
Consider `O=C1c2ccccc2C(=O)c2c1cc(Sc1ccccc1Cl)c1nsnc21` [C32, 4-(2-chloro-phenylthio)anthra[2,1-c] [1,2,5]thiadiazol-6,11-dione], for which the IC50 was more than 15 µM.

The same experiment, now with this note: PC-3 prostate cancer cell line, Table II prints no unit, μM printed, read-out: SRB assay: 50% inhibition of cancer cell proliferation of sample concentration (IC50) of PC-3 prostate cancer cell line.
As for “4-(2-fluoro-phenyl thio)anthra[2,1-c] [1,2,5]thiadiazol oxazole-6,11-dione [C33]”, the IC50 was more than 15 µM.

Consider “4-(2-mercapto-phenyl-thio)anthra[2,1-c] [1,2,5]thiadiazol oxazole-6,11-dione [C36]”, for which the IC50 is more than 15 µM.

As to “4-(4-ethyl-phenyl-thio)anthra[2,1-c][1,2,5] thiadiazol oxazole-6,11-dione [C54]”, the IC50 is 7.5 µM.

For the molecule “4-(4-nitrophenyl thio)anthra[2,1-c][1,2,5] thiadiazol oxazole-6,11-dione [C45]”, the IC50 worked out at 8.38 µM.

Turning to `O=C1c2ccccc2C(=O)c2c1cc(Sc1cccc(Cl)c1Cl)c1nsnc21` [C30, 4-(2,3-dichloro-phenylthio)anthra[2,1-c] [1,2,5]thiadiazol oxazole-6,11-dione], the IC50 was determined as 11 µM.

As to `CC(C)(C)c1ccc(Sc2cc3c(c4nsnc24)C(=O)c2ccccc2C3=O)cc1` [C31, 4-(4-tert-butyl-alkylphenyl-thio)anthra [2,1-c][1,2,5]thiadiazol-6,11-dione], the IC50 is more than 15 µM.

The same experiment, now with this note: PC-3 prostate cancer cells, read-out: IC50 in PC-3 prostate cancer cells (cell viability analysis).
With “4-(2-fluoro-phenyl thio)anthra[2,1-c] [1,2,5]thiadiazol oxazole-6,11-dione [C33]”, the IC50 came out at 5.48 µM.

Turning to “4-(phenethylthiol)anthra[2,1-c][1,2,5] thiadiazol-6,11-dione [C29]”, the IC50 is 19 µM.
